Measured values taken from PubChem BioAssay (NCI).
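Test compounds were applied to cells in 96-well plates for 48 hours at 5 doses. Definition used: TGI = concentration required for complete inhibition of growth.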

How the values were obtained:
Experiment in all cases: NCI tumour cell line growth inhibition, 48 h
[1] = tested on: P388/ADR leukemia
[2] = tested on: XF 498 CNS
[3] = tested on: HOP-18 NSCLC
[4] = tested on: SN12K1 renal
[5] = tested on: M19-MEL melanoma
[6] = tested on: DMS 273 small cell lung
[7] = tested on: SNB-78 CNS
[8] = tested on: LXFL 529 NSCLC
[9] = tested on: RXF-631 renal
[10] = tested on: P388 leukemia

Structure (SMILES) | TGI [1] [µM] | TGI [2] [µM] | TGI [3] [µM] | TGI [4] [µM] | TGI [5] [µM] | TGI [6] [µM] | TGI [7] [µM] | TGI [8] [µM] | TGI [9] [µM] | TGI [10] [µM]
CN(C)CCNC(=O)c1cc(Cl)cc2ccc(-c3ccccc3)nc12 | 7.95 | 5.04 | 12.5 | 5.81 | 11.4 | 7.48 | 24.9 |  |  | 
NCCCCNCCCNC(=O)c1nc(-c2nc(CCN)sc2Cl)sc1Cl |  | > 100 |  |  | > 100 | > 100 | > 100 | 11.1 |  | 
Cc1cc(C)nc(NS(=O)(=O)c2ccc(Nc3c4ccccc4nc4c(C(=O)N5CCN(CCOS(C)(=O)=O)CC5)cccc34)cc2)n1 |  | > 100 |  |  | > 100 |  | > 100 |  |  | 
COC(=O)C1=C(C(=O)OC)SC(=CC#CC=C2SC(C(=O)OC)=C(C(=O)OC)S2)S1 |  | 19.1 | 45.9 |  | > 100 | 38.4 | 48.6 | > 57.4 |  | 
CC(C)N1CC2CC(CN(C(=O)c3ccccc3)C2)C1 |  | > 100 | > 100 |  | > 100 | > 100 |  | > 100 | > 100 | 
CCOC(=O)C1(C#N)C(c2ccccc2)CC(O)(c2ccc(Cl)cc2)C(C(=O)c2ccc(Cl)cc2)C1c1ccccc1 (configuration not stated) |  | > 100 | > 100 |  | > 100 | > 100 | > 100 | > 100 |  | 
COC(=O)[C@@H]1CCCCC[C@H]2C(CO)=C(C)C(=O)C12 (some centres not stated) |  | > 100 | > 100 |  | > 100 | > 100 | > 100 | > 100 |  | 
CSc1cc(=O)n2c3ccccc3c3ccnc1c32 | > 100 |  | 98.2 | > 100 | > 100 | > 100 | > 100 |  |  | > 100
CCC1=C(C(C)=O)[C@@H]2CCCCC[C@@H](C(=O)OC)C2C1=O (some centres not stated) |  | > 100 | > 100 |  | > 100 | > 100 | > 100 | > 100 |  | 
